Test results as given in patent publication US6521594B1, “Method and composition for treating thrombosis” (La Jolla Cancer Research Foundation, priority 1990, dated 2003).
Read-outs that look alike come from different tables or passages of the source. Non-standard residues stand in square brackets, D forms with d. No end group written: not given here. *: point of attachment. Pmc = Cc1c(C)c(S(=O)(=O)*)c(C)c2c1OC(C)(C)CC2; Pen = CC(C)(S)[C@H](N)C(=O)O

Assays:
αvβ5 [1] = assay: αvβ5 ELISA IC50 (μM)
Excerpt: Table printed on a drawing sheet, FIG. 22
Title: Modifications of Ac-CNPRGD(Y-OMe)RC-NH2
(§1) Head of the field: αvβ5 ELISA IC50 (μM)
First copying reader's note: Underlining in the printed sequences marks the cyclic part; the footnote for the raised a at 'Peptide' is not printed on the sheet, and the D in D-Pen is printed as a small capital.
(§2) Where the first naming reader finds the target: head: αvβ5 ELISA IC50 (μM)

platelets [2] = biological target: T1, platelets (Homo sapiens, UniProt P05106+P08514); assay: Platelet aggregation assay (Examples XI.G and XII); format: cell-based; settings: for reactivity in platelet aggregation relative to 8×: comparator 8×; for fold increase in platelet aggregation potency on substitution of Leu in analogue 5: comparator analogue 5; for fold increase in potency over analogue 1: comparator analogue 1
T1 sequence (P08514 32-1039): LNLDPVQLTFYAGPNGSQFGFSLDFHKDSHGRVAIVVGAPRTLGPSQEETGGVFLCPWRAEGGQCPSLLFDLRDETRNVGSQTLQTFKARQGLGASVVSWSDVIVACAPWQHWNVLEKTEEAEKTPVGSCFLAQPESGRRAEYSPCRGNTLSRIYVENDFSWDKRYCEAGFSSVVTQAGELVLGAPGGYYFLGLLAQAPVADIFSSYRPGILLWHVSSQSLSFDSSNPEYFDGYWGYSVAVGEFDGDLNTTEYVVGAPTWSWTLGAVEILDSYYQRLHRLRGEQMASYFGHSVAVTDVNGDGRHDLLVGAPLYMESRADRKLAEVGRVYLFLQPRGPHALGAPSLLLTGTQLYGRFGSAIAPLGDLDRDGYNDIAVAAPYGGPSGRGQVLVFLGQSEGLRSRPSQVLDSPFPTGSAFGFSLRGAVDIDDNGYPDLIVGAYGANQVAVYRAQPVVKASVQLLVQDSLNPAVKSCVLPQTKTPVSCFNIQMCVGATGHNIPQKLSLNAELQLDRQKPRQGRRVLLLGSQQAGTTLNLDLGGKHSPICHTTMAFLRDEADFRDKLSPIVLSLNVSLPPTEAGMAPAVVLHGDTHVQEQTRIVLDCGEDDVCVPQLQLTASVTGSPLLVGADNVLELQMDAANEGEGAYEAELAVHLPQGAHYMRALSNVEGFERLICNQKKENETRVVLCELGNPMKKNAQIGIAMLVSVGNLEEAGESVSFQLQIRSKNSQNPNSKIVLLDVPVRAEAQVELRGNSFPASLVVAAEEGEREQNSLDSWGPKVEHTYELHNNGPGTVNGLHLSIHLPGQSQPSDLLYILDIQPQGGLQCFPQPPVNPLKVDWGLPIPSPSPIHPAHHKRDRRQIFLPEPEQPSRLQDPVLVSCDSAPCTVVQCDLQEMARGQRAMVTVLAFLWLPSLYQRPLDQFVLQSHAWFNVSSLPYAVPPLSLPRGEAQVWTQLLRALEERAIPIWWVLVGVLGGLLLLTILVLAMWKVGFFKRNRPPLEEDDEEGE
T1 sequence (P05106 27-788): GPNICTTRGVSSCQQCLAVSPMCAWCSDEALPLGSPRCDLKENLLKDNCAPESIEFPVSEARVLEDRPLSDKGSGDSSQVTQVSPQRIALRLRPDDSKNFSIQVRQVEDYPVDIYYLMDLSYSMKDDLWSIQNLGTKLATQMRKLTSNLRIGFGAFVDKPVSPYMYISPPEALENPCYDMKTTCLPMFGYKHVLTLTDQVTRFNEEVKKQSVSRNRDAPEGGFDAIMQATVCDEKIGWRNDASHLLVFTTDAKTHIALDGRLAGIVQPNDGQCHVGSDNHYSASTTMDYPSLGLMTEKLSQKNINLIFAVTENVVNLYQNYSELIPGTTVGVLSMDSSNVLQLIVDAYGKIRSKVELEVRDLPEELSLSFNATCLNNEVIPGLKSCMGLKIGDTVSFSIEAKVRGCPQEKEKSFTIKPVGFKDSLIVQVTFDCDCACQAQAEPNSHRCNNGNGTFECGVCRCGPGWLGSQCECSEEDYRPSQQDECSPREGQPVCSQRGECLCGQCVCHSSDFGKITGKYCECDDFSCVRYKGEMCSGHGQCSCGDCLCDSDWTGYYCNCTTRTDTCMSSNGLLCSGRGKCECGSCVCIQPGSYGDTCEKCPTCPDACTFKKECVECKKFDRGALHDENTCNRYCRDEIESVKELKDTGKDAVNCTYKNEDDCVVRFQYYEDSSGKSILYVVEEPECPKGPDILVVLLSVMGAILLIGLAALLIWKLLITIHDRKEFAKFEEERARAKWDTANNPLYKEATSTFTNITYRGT
Description: (§3) Platelet aggregation was assessed using the method of Born, Nature 194:927-929 (1962), incorporated herein by reference. Briefly, the change in light transmission was measured through a stirred suspension of platelets in an aggregometer (Model 400 VS, Chrono-Log, Havertown, Pa., USA). Studies employing ADP were performed with platelet-rich plasma (PRP), which was obtained by low-speed centrifugation (200×g for 10 min.) of whole blood freshly drawn into trisodium citrate (at a final concentration of 11 mM). In studies using thrombin, the PRP was gel-filtered on Sepharose 2B in divalent ion-free Tyrode's solution containing 2% BSA. For all studies, the reference standard was platelet-poor plasma, which was obtained by centrifuging PRP at 1000×g for 5 min.
All aggregation studies were performed at 37° C. with a constantly stirred suspension of 3×10^8 platelets/mL. (Platelet count was determined with the aid of a hemacytometer.) Peptides and stimulants were added to these suspensions in 1% dilutions. The PRP and gel-filtered platelets were used within three hours from the time of blood collection.
The peptides described in this Example were synthesized according to the methods of Examples I and XI. Selectivity and potency were measured according to the methods of Examples II through XI. The peptide identification numbers used in this Example are consistent and relevant to this Example only. Some of the peptides are identified by other nomenclature elsewhere in this document.

platelets [3] = biological target: T1, platelets; format: cell-based; settings: ADP 10 μm; citrated PRP; read-out: ADP-Stimulated Aggregation (IC50)
Description: Briefly, the change in light transmission was measured through a stirred suspension of platelets in an aggregometer (Model 400 VS, Chrono-Log, Havertown, Pa., USA). […] In studies using thrombin, the PRP was gel-filtered on Sepharose 2B in divalent ion-free Tyrode's solution containing 2% BSA. For all studies, the reference standard was platelet-poor plasma, which was obtained by centrifuging PRP at 1000×g for 5 min.
(§6) All aggregation studies were performed at 37° C. with a constantly stirred suspension of 3×10^8 platelets/ml. (Platelet count was determined with the aid of a hemacytometer.) Peptides and stimulants were added to these suspensions in 1% dilutions. The PRP and gel-filtered platelets were used within three hours from the time of blood collection.
(§7) Peptide anti-aggregation potencies were determined from dose-responsive curves for the inhibition of the maximum aggregation responses stimulated by physiologic doses of ADP (10 μm) and thrombin (2 U/ml).

αvβ5 [4] = assay: αvβ5 ELISA IC50 (μM); remark: listed apart in the source
Excerpt: Table printed on a drawing sheet, FIG. 23
Title: Modification of Ac-CNPRGD(Y-OMe)RC-NH2
as §1
First copying reader's note: Underlining in the printed sequences marks the cyclised part (C to C); the footnote for the raised a on 'Peptide' is not printed on the sheet.
as §2

platelets [5] = biological target: T1, platelets; assay: Thrombin-stimulated platelet aggregation (gel-filtered platelets); format: cell-based; settings: thrombin 2 U/ml
Description: as §6, §7

platelets [6] = assay: Ex vivo inhibition of platelet aggregation (Table IV); format: in vivo, dog; settings: dose as listed per peptide (bolus ± infusion)
Description: as §3, with “Platelet aggregation assays were performed following the methods of this Example or those of Example IX.G. Platelet” for “Platelet”, “(Nature” for “Nature”, “(1962)),” for “(1962),”
(§4) Platelet counts and ex vivo aggregation studies were performed one hour before and 1, 3, and 5 hours after application of anodal direct current.
Using the method described in Example V to measure ex vivo inhibition of platelet aggregation and the method described in Example VII to measure bleeding, four additional peptides were tested. These peptides included 11J, 11Q, 11K and 11V.

αvβ5 [7] = assay: αvβ5 ELISA IC50 (μM); remark: listed apart in the source
Excerpt: Table printed on a drawing sheet, FIG. 19
Title: Modifications of R(Pmc)GHRGD(Y-OMe)RCR
as §1
First copying reader's note: The part of each sequence from (Pmc) through C is underlined on the sheet, and the footnotes a,b cited in the head are not printed on it.
as §2

αvβ5 [8] = assay: αvβ5 ELISA IC50 (μM); remark: listed apart in the source
Excerpt: Table printed on a drawing sheet, FIG. 17
Title: Modifications of G(Pen)[…]
as §1
The patent's description of the figure: FIG. 17 is a Table showing the effect of modifications of Pen residue at position −3 (as defined, infra) on potency and selectivity.
First copying reader's note: Underlining in the printed sequences marks the cyclized part; the footnotes a and b are referenced but not printed on the sheet.
as §2

platelets [9] = assay: Ex vivo platelet aggregation in the canine coronary thrombosis study; design: species or system dog; settings: 10 mg/kg injection
Description: For all ex vivo studies (see FIG. 3), control aggregation values were standardized to the percentages of light transmission observed in PRP and PPP samples (0% and 100%, respectively).
(§5) Animals were randomly assigned to two treatment groups: vehicle control (i.e., normal saline) or RGD peptides at various concentrations. Peptides were administered intra-atrially in both bolus and continuous injections. Each bolus injection consisted of 0.5 to 10 mg/kg and was administered 15 minutes before application of the current. A continuous infusion of the same peptide was then started immediately after completion of this initial injection. Animals received a 25 μg/kg/min to 200 μg/kg/min infusion. The anti-thrombotic effects of the peptides were monitored until 30 minutes after the occurrence of a persistent, occlusive thrombus or five hours after the initiation of electrical stimulation (whichever resulted first). If an occlusive thrombus had not developed within four hours after the initiation of current, the peptide infusion was stopped.
as §4
Platelet aggregation was also determined ex vivo at one, three, and five hours after current application. For these studies, arachidonic acid, or collagen was again used to stimulate the platelets.

coronary thrombosis = assay: Electrically induced canine coronary thrombosis (time to full occlusion); format: in vivo, dog
Description: Male mongrel dogs weighing 14 to 20 kg were selected based on proper aggregation of their platelets in response to arachidonic acid, collagen, and adenosine disphosphate (ADP) and based on similar weights and hemodynamic properties.
Before surgery, the animals were anesthetized with sodium pentobarbital (30 mg/kg, i.v.) and then intubated and ventilated on room air with positive pressure using a respirator (Harvard Apparatus, S. Natick, Mass.) at a volume of 30 ml/kg and a frequency of 12 breaths/min. Surgery, performed under aseptic conditions, was begun with the placement of cannulae into the left carotid artery and jugular vein for monitoring arterial blood pressure (Statham P23 pressure transducer, Gould, Inc., Cardiovascular Products, Oxnard, Calif.) and administering intravenous fluids.
The heart was exposed via a left thoracotomy through the 5th intercostal space. A 2-cm segment of the left circumflex coronary artery (LCCA) was isolated from surrounding tissue by blunt dissection. […] The intra-coronary electrode was constructed by attaching a 25-gauge hypodermic needle tip to a 30-gauge Teflon-insulated silver-coated copper wire. The mechanical occluder was constructed of stainless steel in a C shape with a Teflon screw (2 mm diameter) on top. It was adjusted to control vessel circumference and decrease the reactive hyperemic flow due to a 10-sec (full) occlusion by 50-70% without affecting basal coronary blood flow (FIG. 1). A monopolar epicardial electrode was sutured to the surface of the ventricle in the region of LCCA distribution to monitor ischemic changes in the electrocardiogram (ECG). The left atrium was cannulated with polythylene tubing for administration of the peptide. Continuous recordings of blood pressure, limb lead II ECG, epicardial electrogram, and mean and phasic LCCA blood flow were obtained on a Model 7 polygraph (Grass Instrument Co., Quincy, Mass.).
One hour after the completion of surgery, a 100 micro-amp continuous anodal direct current delivered from a 9 volt nickel-cadmium battery was applied to the intimal surface of the LCCA. The anode of the battery was in series with a 250,000 ohm potentiometer and the intraluminal coronary artery electrode. The electric circuit was completed by placing the cathode in a subcutaneous site. Electrical stimulation was applied for three hours. At the conclusion of each experiment, the heart was fibrillated electrically and quickly removed, and the LCCA was dissected free as far as possible to verify the position of the implanted anodal electrode.
as §5
Coronary thrombosis was quantified as the time to full occlusion. The effects of the various peptide treatments on coronary thrombosis is illustrated in FIG. 4.

Substance: (Mpr)NPRGD(Y-OMe)RC-NH2 [compound 39]
- IC50 (αvβ5 [1]): 3 µM

Substance: RGD(O-Me-Y)RE-NH2 [21I]
- reactivity in platelet aggregation relative to 8× (platelets [2]): about three-fold

Substance: AcCIPRGDY-OMeRCNH2 [10R]
- fold increase in platelet aggregation potency versus analogue 26 (platelets [2]; comparator analogue 26): 3-4 fold

Substance: Ac-CNPRGD(Y-OMe)KC-NH2 [11R] [listing 1 of 2 here]
- retained inhibitory activity versus analogue 32 (platelets [2]; comparator analogue 32): 20%

Substance: R(Pmc)GHRGDFRCR
- IC50 (platelets [3]): 0.62 µM
- fold increase in platelet aggregation potency on substitution of Leu in analogue 5 (platelets [2]): ~5 fold

Substance: R(Pmc)GHRGDVRCR
- IC50 (platelets [3]): 0.69 µM
- fold increase in platelet aggregation potency on substitution of Leu in analogue 5 (platelets [2]): 4 fold

Substance: Ac-CNPRGD(Y-OMe)AC-NH2 [11K]
- IC50 (αvβ5 [4]): 8.85 µM

Substance: L(Pen)GHRGDLRCA
- IC50 (platelets [3]): 10.5 µM

Substance: (t-but-am-Pmp)GHRGDLR(Pen)A
- IC50 (platelets [3]): 89 µM

Substance: (Pmp)GHRGDLRCA
- fold increase in potency over analogue 1 (platelets [2]): 2 fold

Substance: (Pmp)NPRGD(Y-OMe)RC-NH2 [compound 38]
- IC50 (αvβ5 [1]): 4.9 µM

Substance: G(Pen)LRGDSPCA
- IC50 (platelets [3]): 415 µM
- IC50 (platelets [5]): 308 µM

Substance: G[Pen]GRGDSFCA (cysteine pairing not given here)
- IC50 (platelets [3]): 115 µM

Substance: Ac-CNPKGD(Y-OMe)RC-NH2 [11Q]
- ex vivo inhibition platelet aggregation (platelets [6]): >95%

Substance: R(Pmc)SHRGD(Y-OMe)RCR [compound 19]
- IC50 (αvβ5 [7]): 6.6 µM

Substance: Ac-(Pmc)NPRGD(Y-OMe)RC-NH2 [compound 37]
- IC50 (αvβ5 [1]): 2.34 µM

Substance: G(Pen)LRGDSRCA
- IC50 (platelets [3]): 41 µM
- IC50 (platelets [5]): 49 µM

Substance: Ac-CNPRGD(O-N-Butyl-Y)RC-NH2 [analogue 34]
- fold increase in potency over analogue 1 (platelets [2]): about 150 fold

Substance: G(Pen)GRGDTPCA
- IC50 (platelets [3]): 22.3 µM

Substance: G(D-Pen)GHRGDLRCA [compound 2]
- IC50 (αvβ5 [8]): 5.27 µM

Substance: Ac-CNPRGD(Y-OMe)OC-NH2 [11P]
- IC50 (αvβ5 [4]): 7.7 µM

Substance: G(Pen)FRGDSFCA
- IC50 (platelets [3]): < 200 µM

Substance: R(D-Pen)GHRGDLRCR [analogue 4]
- IC50 (αvβ5 [8]): 10 µM

Substance: Ac-CNPRGD(Y-OMe)KC-NH2 [11R] [listing 2 of 2 here]
- IC50 (αvβ5 [4]): 5.82 µM

Substance: Ac-CNPRGD(Y-OMe)(Cit)C-NH2 [11S]
- IC50 (αvβ5 [4]): 3.46 µM

Substance: R(Pen)GRGDTPCR
- IC50 (platelets [5]): 2 µM

Substance: Ac-(D-Pen)NPRGD(Y-OMe)RC-NH2 [compound 36]
- IC50 (αvβ5 [1]): 6.7 µM

Substance: GNPRGD(O-Me-Y)RD-NH2 [20Q]
- potency relative to 17J (platelets [2]; comparator 17J): about three times
- potency relative to 18J (platelets [2]; comparator 18J): about 20 times

Substance: G(Pen)GHRGDTRCA
- IC50 (platelets [3]): 11.3 µM
- IC50 (platelets [5]): 17 µM

Substance: Ac-CNPRGD(Y-OMe)(Nle)C-NH2 [11V]
- ex vivo inhibition platelet aggregation (platelets [6]): >98%

Substance: R(Pmc)GHRGDLRCR [analogue 5]
- IC50 (αvβ5 [8]): 1.58 µM

Substance: R(Tmc)GHRGDLRCR [analogue 7] [listing 1 of 2 here]
- fold more potent than analogue 3 in the aggregation assay (platelets [2]; comparator analogue 3): 2 fold

Substance: Ac-CNPRGD(Y-OMe)EC-NH2 [11J]
- IC50 (αvβ5 [4]): 9.47 µM

Substance: R(Pmc)IHRGD(Y-OMe)RCR [compound 20]
- IC50 (αvβ5 [7]): 9.9 µM

Substance: R2(Pen)GRGDTPCA
- IC50 (platelets [3]): 8.2 µM
- IC50 (platelets [5]): 2.7 µM

Substance: G(Pen)LRGDTPCA
- IC50 (platelets [3]): 86 µM

Substance: G(Pen)GHRGDLRCA [2G]
- IC50 (αvβ5 [8]): 8.26 µM

Substance: R(Pmc)RHRGD(Y-OMe)RCR [compound 22]
- IC50 (αvβ5 [7]): 6.2 µM

Substance: G(Pen)GRGDRPCA
- IC50 (platelets [3]): 22.3 µM

Substance: R(Pmc)DHRGD(Y-OMe)RCR [compound 18]
- IC50 (αvβ5 [7]): 7.2 µM

Substance: R(Pen)GRGDTPCA
- IC50 (platelets [3]): 7 µM

Substance: Ac-CNPRGD(Y-OMe)LC-NH2 [compound 47]
- IC50 (αvβ5 [4]): 7.14 µM

Substance: R(Pmc)GHRGDYRCR
- IC50 (platelets [3]): 1 µM

Substance: (Mpr)RGD(O-Me-Y)RC-NH2 [16A]
- reactivity in platelet aggregation relative to 8× (platelets [2]): about two-fold

Substance: R(Pen)GRGDWPCR [4R]
- ex vivo platelet aggregation by ADP, AA and collagen (platelets [9]): unresponsive to all modes of stimulation at all time points
- coronary thrombosis: time to full occlusion (coronary thrombosis; 3 mg/kg): ineffective
- coronary thrombosis: time to full occlusion (coronary thrombosis; 10 mg/kg): prevented occlusion throughout the duration of the study
- IC50 (platelets [5]): 0.53 µM

Substance: Ac-CNPRGD(Y-OMe)(dR)C-NH2 [11L]
- platelet aggregation potency compared with analogue 32 (platelets [2]; comparator analogue 32): decrease in potency

Substance: R(Tmc)GHRGDLRCR [analogue 7] [listing 2 of 2 here]
- IC50 (αvβ5 [8]): 0.34 µM
